# Measurements: US7858620B2, “Cyanoisoquinoline” (H. Lundbeck A/S, priority 2007, dated 2010)
# Biological target: T1, PDE10A enzyme (Homo sapiens, UniProt Q9Y233)
# T1 construct: made in house; host or cells: E. coli BL21(DE3)
# Experiment: PDE10A inhibition assay, SPA
# Type: biochemical
# Settings: column head 2,1334003; unit inferred, nM
# Experimental: Active PDE10A enzyme is prepared in a number of ways for use in PDE assays (Loughney, K. et al. Gene 1999, 234, 109-117; Fujishige, K. et al. Eur J Biochem. 1999, 266, 1118-1127 and Soderling, S. et al. Proc. Natl. Acad. Sci. 1999, 96, 7071-7076). PDE10A can be expressed as full-length proteins or as truncated proteins, as long as they express the catalytic domain. PDE10A can be prepared in different cell types, for example insect cells or E. coli. An example of a method to obtain catalytically active PDE10A is as follows: The catalytic domain of human PDE10A (amino acids 440-779 from the sequence with accession number NP 006652) is amplified from total human brain total RNA by standard RT-PCR and is cloned into the BamH1 and Xho1 sites of the pET28a vector (Novagen). Expression in coli is performed according to standard protocols. Briefly, the expression plasmids are transformed into the BL21(DE3) E. coli strain, and 50 mL cultures inoculated with the cells allowed to grow to an OD600 of 0.4-0.6 before protein expression is induced with 0.5 mM IPTG. Following induction, the cells are incubated overnight at room temperature, after which the cells are collected by centrifugation. Cells expressing PDE10A are resuspended in 12 mL (50 mM TRIS-HCl-pH8.0, 1 mM MgCl2 and protease inhibitors). The cells are lysed by sonication, and after all cells are lysed, TritonX100 is added according to Novagen protocols.
# PDE10A and Pde3A assays can for example be performed as follows: PDE10A and Pde3A assays are performed in 60 uL samples containing a fixed amount of the relevant PDE enzyme (sufficient to convert 20-25% of the cyclic nucleotide substrate), a buffer (50 mM HEPES7.6; 10 mM MgCl2; 0.02% Tween20), 0.1 mg/ml BSA, 225 pCi of ^3H-labelled cyclic nucleotide substrate, tritium labeled cAMP to a final concentration of 5 nM and varying amounts of inhibitors. Reactions are initiated by addition of the cyclic nucleotide substrate, and reactions are allowed to proceed for one hr at room temperature before being terminated through mixing with 15 uL 8 mg/mL yttrium silicate SPA beads (Amersham). The beads are allowed to settle for one hr in the dark before the plates are counted in a Wallac 1450 Microbeta counter. The measured signal can be converted to activity relative to an uninhibited control (100%) and IC50 values can be calculated using the Xlfit extension to EXCEL.
# T1 sequence (Q9Y233 716-1055): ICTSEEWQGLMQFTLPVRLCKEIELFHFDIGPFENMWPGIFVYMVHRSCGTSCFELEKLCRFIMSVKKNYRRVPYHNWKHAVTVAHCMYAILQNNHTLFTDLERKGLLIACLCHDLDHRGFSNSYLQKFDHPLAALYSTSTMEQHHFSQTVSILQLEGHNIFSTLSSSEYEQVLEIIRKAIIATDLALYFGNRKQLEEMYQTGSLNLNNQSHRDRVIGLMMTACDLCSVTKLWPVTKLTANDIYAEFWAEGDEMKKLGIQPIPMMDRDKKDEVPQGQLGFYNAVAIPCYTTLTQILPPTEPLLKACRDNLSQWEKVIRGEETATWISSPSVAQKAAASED
row,SMILES,IC50 [nM]
1,"CCOc1ccc(C2CN(c3ncc(C#N)c4cc(OC)c(OC)cc34)CCN2)cc1 (stereo not drawn) [Compound 55, 1-[3-(4-Ethoxy-phenyl)-piperazin-1-yl]-6,7-dimethoxy-isoquinoline-4-carbonitrile]",200
2,"COc1cc2c(C#N)cnc(N3CCNC(c4cccc(Cl)c4)C3)c2cc1OC (stereo not drawn) [Compound 26, 1-[3-(3-Chloro-phenyl)-piperazin-1-yl]-6,7-dimethoxy-isoquinoline-4-carbonitrile]",390
3,"COc1ccc2cc(C3CN(c4nc(C)c(C#N)c5cc(OC)c(OC)cc45)CCN3)ccc2c1 (stereo not drawn) [Compound 38, 6,7-Dimethoxy-1-[3-(6-methoxy-naphthalen-2-yl)-piperazin-1-yl]-3-methyl-isoquinoline-4-carbonitrile]",980
4,"COc1cc2c(C#N)cnc(N3CCNC(c4cccc([N+](=O)[O-])c4)C3)c2cc1OC (stereo not drawn) [Compound 9, 6,7-Dimethoxy-1-[3-(3-nitro-phenyl)-piperazin-1-yl]-isoquinoline-4-carbonitrile]",120
5,"COc1cc2c(N3CCNC(c4ccc(C)cc4)C3)nc(C)c(C#N)c2cc1OC (stereo not drawn) [Compound 31, 6,7-Dimethoxy-3-methyl-1-(3-p-tolyl-piperazin-1-yl)-isoquinoline-4-carbonitrile]",1000
6,"COc1cc2c(C#N)cnc(N3CCNC(c4ccc(OC(C)C)cc4)C3)c2cc1OC (stereo not drawn) [Compound 57, 1-[3-(4-Isopropoxy-phenyl)-piperazin-1-yl]-6,7-dimethoxy-isoquinoline-4-carbonitrile]",530
7,"COc1cc2c(C#N)cnc(N3CCOC(c4ccc(Cl)cc4)C3)c2cc1OC (stereo not drawn) [Compound 20, 1-[2-(4-Chloro-phenyl)-morpholin-4-yl]-6,7-dimethoxy-isoquinoline-4-carbonitrile]",800
8,"COc1cc2c(C#N)cnc(N3CCOC(c4ccc(C)cc4)C3)c2cc1OC (stereo not drawn) [Compound 19, 6,7-Dimethoxy-1-(2-p-tolyl-morpholin-4-yl)-isoquinoline-4-carbonitrile]",580
9,"COc1cc2c(C#N)cnc(N3CCNC(c4cc(F)c(Cl)cc4Cl)C3)c2cc1OC (stereo not drawn) [Compound 17, 1-[3-(2,4-Dichloro-5-fluoro-phenyl)-piperazin-1-yl]-6,7-dimethoxy-isoquinoline-4-carbonitrile]",1000
10,"COc1cccc(C2CN(c3ncc(C#N)c4cc(OC)c(OC)cc34)CCN2)c1 (single isomer, unassigned; (+)) [Compound 23, (+)-6,7-Dimethoxy-1-[3-(3-methoxy-phenyl)-piperazin-1-yl]-isoquinoline-4-carbonitrile]",1300
11,"COc1ccc(C2CN(c3ncc(C#N)c4cc(OC)c(OC)cc34)CCN2)cc1F (stereo not drawn) [Compound 54, 1-[3-(3-Fluoro-4-methoxy-phenyl)-piperazin-1-yl]-6,7-dimethoxy-isoquinoline-4-carbonitrile]",36
12,"COc1cc2c(C#N)cnc(N3CCOC(c4ccc(C(F)(F)F)cc4)C3)c2cc1OC (stereo not drawn) [Compound 22, 6,7-Dimethoxy-1-[2-(4-trifluoromethyl-phenyl)-morpholin-4-yl]-isoquinoline-4-carbonitrile]",1600
13,"COc1ccc(C2CN(c3ncc(C#N)c4cc(OC)c(OC)cc34)CCN2)cc1NC(C)=O (stereo not drawn) [Compound 70, N-{5-[4-(4-Cyano-6,7-dimethoxy-isoquinolin-1-yl)-piperazin-2-yl]-2-methoxy-phenyl}-acetamide]",66
14,"COc1cc2c(N3CCN[C@@H](c4ccccc4)C3)nc(C)c(C#N)c2cc1OC [Compound 49, 6,7-Dimethoxy-3-methyl-1-((S)-3-phenyl-piperazin-1-yl)-isoquinoline-4-carbonitrile]",460
15,"COc1ccc(C2CN(c3ncc(C#N)c4cc(OC)c(OC)cc34)CCN2)c(C)c1 (stereo not drawn) [Compound 53, 6,7-Dimethoxy-1-[3-(4-methoxy-2-methyl-phenyl)-piperazin-1-yl]-isoquinoline-4-carbonitrile]",500
16,"COc1cc2c(N3CCNC(c4ccc(N(C)C)cc4)C3)nc(C)c(C#N)c2cc1OC (stereo not drawn) [Compound 47, 1-[3-(4-Dimethylamino-phenyl)-piperazin-1-yl]-6,7-dimethoxy-3-methyl-isoquinoline-4-carbonitrile]",1200
17,"COc1cc2c(N3CCNC(c4ccccc4OC)C3)nc(C)c(C#N)c2cc1OC (stereo not drawn) [Compound 42, 6,7-Dimethoxy-1-[3-(2-methoxy-phenyl)-piperazin-1-yl]-3-methyl-isoquinoline-4-carbonitrile]",1400

row,SMILES,IC50 [nM]
1,"COc1cccc(C2CN(c3ncc(C#N)c4cc(OC)c(OC)cc34)CCN2)c1 (stereo not drawn) [Compound 2, 6,7-Dimethoxy-1-[3-(3-methoxy-phenyl)-piperazin-1-yl]-isoquinoline-4-carbonitrile]",320
2,"COc1ccc2cc(C3CN(c4ncc(C#N)c5cc(OC)c(OC)cc45)CCN3)ccc2c1 (stereo not drawn) [Compound 28, 6,7-Dimethoxy-1-[3-(6-methoxy-naphthalen-2-yl)-piperazin-1-yl]-isoquinoline-4-carbonitrile]",330
3,COc1cc2c(N3CCN[C@H](c4ccccc4)C3)nc(C)c(C#N)c2cc1OC [Compound 40],520
4,"COc1ccc(C2CN(c3ncc(C#N)c4cc(OC)c(OC)cc34)CCN2)cc1Cl (stereo not drawn) [Compound 56, 1-[3-(3-Chloro-4-methoxy-phenyl)-piperazin-1-yl]-6,7-dimethoxy-isoquinoline-4-carbonitrile]",81
5,"COc1ccc([C@@H]2CN(c3ncc(C#N)c4cc(OC)c(OC)cc34)CCN2)cc1 [Compound 61, 6,7-Dimethoxy-1-[(R)-3-(4-methoxy-phenyl)-piperazin-1-yl]-isoquinoline-4-carbonitrile]",1200
6,"COc1cc2c(C#N)cnc(N3CCNC(c4ccc5c(c4)OCCO5)C3)c2cc1OC (stereo not drawn) [Compound 66, 1-[3-(2,3-Dihydro-benzo[1,4]dioxin-6-yl)-piperazin-1-yl]-6,7-dimethoxy-isoquinoline-4-carbonitrile]",130
7,"COc1cc2c(C#N)cnc(N3CCNC(c4ccc(Cl)cc4)C3)c2cc1OC (stereo not drawn) [Compound 30, 1-[3-(4-Chloro-phenyl)-piperazin-1-yl]-6,7-dimethoxy-isoquinoline-4-carbonitrile]",700
8,"CCOc1ccc(C2CN(c3ncc(C#N)c4cc(OC)c(OC)cc34)CCN2)cc1C (stereo not drawn) [Compound 59, 1-[3-(4-Ethoxy-3-methyl-phenyl)-piperazin-1-yl]-6,7-dimethoxy-isoquinoline-4-carbonitrile]",650
9,"COc1cc2c(C#N)cnc(N3CCNC(c4ccc(OC(F)(F)F)cc4)C3)c2cc1OC (stereo not drawn) [Compound 60, 6,7-Dimethoxy-1-[3-(4-trifluoromethoxy-phenyl)-piperazin-1-yl]-isoquinoline-4-carbonitrile]",2300
10,"COc1cc2c(C#N)cnc(N3CCNC(c4ccc(OC)c(C(F)(F)F)c4)C3)c2cc1OC (stereo not drawn) [Compound 68, 6,7-Dimethoxy-1-[3-(4-methoxy-3-trifluoromethyl-phenyl)-piperazin-1-yl]-isoquinoline-4-carbonitrile]",440
11,"CCOc1ccc(C2CN(c3ncc(C#N)c4cc(OC)c(OC)cc34)CCN2)c(C)c1 (stereo not drawn) [Compound 69, 1-[3-(4-Ethoxy-2-methyl-phenyl)-piperazin-1-yl]-6,7-dimethoxy-isoquinoline-4-carbonitrile]",790
12,"COc1cccc(C2CN(c3ncc(C#N)c4cc(OC)c(OC)cc34)CCN2)c1 (single isomer, unassigned; (-)) [Compound 24, (−)-6,7-Dimethoxy-1-[3-(3-methoxy-phenyl)-piperazin-1-yl]-isoquinoline-4-carbonitrile]",27
13,"COc1ccc(C2CN(c3ncc(C#N)c4cc(OC)c(OC)cc34)CCO2)cc1 (stereo not drawn) [Compound 18, 6,7-Dimethoxy-1-[2-(4-methoxy-phenyl)-morpholin-4-yl]-isoquinoline-4-carbonitrile]",97
14,"COc1ccc(OC)c(C2CN(c3nc(C)c(C#N)c4cc(OC)c(OC)cc34)CCN2)c1 (stereo not drawn) [Compound 36, 1-[3-(2,5-Dimethoxy-phenyl)-piperazin-1-yl]-6,7-dimethoxy-3-methyl-isoquinoline-4-carbonitrile]",960
15,"COc1cc2c(N3CCNC(c4cc(OC)c(OC)c(OC)c4)C3)nc(C)c(C#N)c2cc1OC (stereo not drawn) [Compound 48, 6,7-Dimethoxy-3-methyl-1-[3-(3,4,5-trimethoxy-phenyl)-piperazin-1-yl]-isoquinoline-4-carbonitrile]",1500
16,"COc1cc2c(C#N)cnc(N3CCNC(c4cc(C)c(OC)c(C)c4)C3)c2cc1OC (stereo not drawn) [Compound 65, 6,7-Dimethoxy-1-[3-(4-methoxy-3,5-dimethyl-phenyl)-piperazin-1-yl]-isoquinoline-4-carbonitrile]",1700
